For this assay, the target named is Myc/Max binding to DNA (Homo sapiens, UniProt P01106). The assay can be described thus: Electrophoretic mobility shift assay (EMSA) of Myc/Max binding to DNA. Format: biochemical. The settings on record: EMSA, 100 uM test compound; read-out: Bound DNA (%) (100uM). The protocol: We also tested our best hit compound Min9 (NUCC-0176234) and newly synthesized analogs for effects of these compounds on Myc/Max binding to DNA in electrophoretic mobility shift assays (EMSAs). (See FIG. 5a and FIG. 5b). We expected the active compounds to impair Myc/Max binding to DNA. Several strucutural analogs of Min9 were tested over multiple doses for inhibiting Myc-DNA binding and we observed a dose-dependent inhibition. (See FIG. 5c).
Additional compounds were synthesized and tested in the EMSA assay at concentrations of 200 μM, 100 μM, and 50 μM.

The record followed here is patent US20170253581A1, “SUBSTITUTED HETEROCYCLES AS c-MYC TARGETING AGENTS” (Northwestern University, priority 2016, published 2017).

Chain of Myc/Max binding to DNA (P01106 whole entry): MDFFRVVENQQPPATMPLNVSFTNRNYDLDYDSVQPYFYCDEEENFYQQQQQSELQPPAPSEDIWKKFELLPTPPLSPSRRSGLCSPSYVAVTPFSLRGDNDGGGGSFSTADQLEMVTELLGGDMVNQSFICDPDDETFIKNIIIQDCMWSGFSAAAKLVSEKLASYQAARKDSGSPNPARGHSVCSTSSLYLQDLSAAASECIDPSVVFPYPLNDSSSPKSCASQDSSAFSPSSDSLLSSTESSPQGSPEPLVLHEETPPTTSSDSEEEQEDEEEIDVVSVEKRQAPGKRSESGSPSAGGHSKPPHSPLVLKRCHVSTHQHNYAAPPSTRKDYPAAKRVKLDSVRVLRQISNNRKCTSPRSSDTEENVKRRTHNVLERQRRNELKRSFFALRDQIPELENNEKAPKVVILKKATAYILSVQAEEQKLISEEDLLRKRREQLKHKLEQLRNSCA

Take `CCc1ccc(Oc2c(-c3ccc(OCCc4ccc(Cl)cc4)cc3O)n[nH]c2C(F)(F)F)cc1` [compound 0196357]: the remaining activity at 100 µM turned out to be 28%.
Turning to `CCc1ccc(Oc2c(-c3ccc(OCc4ccc(OC)cc4)cc3O)nn(C)c2C(F)(F)F)cc1` [compound 0196358], the remaining activity at 100 µM was determined as 98%.
For `CCc1ccc(Oc2c(-c3ccc(OCc4ccc(OC)cc4)cc3O)n[nH]c2C(F)(F)F)cc1` [compound 0196359] the value was 57%.
For `Cn1nc(-c2ccc(OCc3ccc(Cl)cc3)cc2O)c(-c2cc(C(F)(F)F)cc(C(F)(F)F)c2)c1C(F)(F)F` [compound 0196360] the value was 100%; for `Cn1nc(C(F)(F)F)c(-c2cc(C(F)(F)F)cc(C(F)(F)F)c2)c1-c1ccc(OCc2ccc(Cl)cc2)cc1O` [compound 0196361], 0%; for `Oc1cc(OCc2ccc(Cl)cc2)ccc1-c1n[nH]c(C(F)(F)F)c1-c1cc(C(F)(F)F)cc(C(F)(F)F)c1` [compound 0196362], 33%.
In the case of `Oc1cc(OCc2ccc(Cl)cc2)ccc1-c1n[nH]c(C(F)(F)F)c1-c1ccccc1Cl` [compound 0196363], the remaining activity at 100 µM was 5%.
For `Cn1nc(-c2ccc(OCc3ccc(Cl)cc3)cc2O)c(-c2cccnc2)c1C(F)(F)F` [compound 0196364] the value was 132%; for `Cn1nc(C(F)(F)F)c(-c2cccnc2)c1-c1ccc(OCc2ccc(Cl)cc2)cc1O` [compound 0196365], 98%.
For `Oc1cc(OCc2ccc(Cl)cc2)ccc1-c1n[nH]c(C(F)(F)F)c1-c1cccnc1` [compound 0196366] the value was 79%.
As for `Oc1cc(OCc2ccc(Cl)cc2)ccc1-c1n[nH]cc1-c1ccccc1` [compound 0198293], the remaining activity at 100 µM was 70%.
For `Cn1cc(-c2ccccc2)c(-c2ccc(OCc3ccc(Cl)cc3)cc2O)n1` [compound 0198294] the value was 97%; for `Oc1cc(OCc2ccc(Cl)cc2)ccc1-c1n[nH]c(C(F)(F)F)c1-c1ccccc1` [compound 0198295], 0%; for `Cn1nc(C(F)(F)F)c(-c2ccccc2)c1-c1ccc(OCc2ccc(Cl)cc2)cc1O` [compound 0198296], 74%.
For `Cn1nc(-c2ccc(OCc3ccc(Cl)cc3)cc2O)c(-c2ccccc2)c1C(F)(F)F` [compound 0198297] the value was 89%.
For `Cc1[nH]nc(-c2ccc(OCc3ccc(Cl)cc3)cc2O)c1-c1ccccc1` [compound 0198298] the value was 88%; for `Cc1nn(C)c(-c2ccc(OCc3ccc(Cl)cc3)cc2O)c1-c1ccccc1` [compound 0198299], 90%.
For the compound `Cc1c(-c2ccccc2)c(-c2ccc(OCc3ccc(Cl)cc3)cc2O)nn1C` [compound 0198300], the remaining activity at 100 µM was 94%.
For `CCc1[nH]nc(-c2ccc(OCc3ccc(Cl)cc3)cc2O)c1-c1ccccc1` [compound 0198301] the value was 105%; for `CCc1nn(C)c(-c2ccc(OCc3ccc(Cl)cc3)cc2O)c1-c1ccccc1` [compound 0198302], 100%; for `CCc1c(-c2ccccc2)c(-c2ccc(OCc3ccc(Cl)cc3)cc2O)nn1C` [compound 0198303], 105%.
For `COc1ccc(-c2c[nH]nc2-c2ccc(OCc3ccc(Cl)cc3)cc2O)cc1` [compound 0198304] the value was 98%; for `COc1ccc(-c2cn(C)nc2-c2ccc(OCc3ccc(Cl)cc3)cc2O)cc1` [compound 0198305], 106%; for `COc1ccc(-c2c(C)nn(C)c2-c2ccc(OCc3ccc(Cl)cc3)cc2O)cc1` [compound 0198306], 105%.
For `COc1ccc(-c2c(-c3ccc(OCc4ccc(Cl)cc4)cc3O)nn(C)c2C)cc1` [compound 0198307] the value was 111%; for `COc1cccc(-c2c[nH]nc2-c2ccc(OCc3ccc(Cl)cc3)cc2O)c1` [compound 0198308], 92%; for `COc1cccc(-c2c(-c3ccc(OCc4ccc(Cl)cc4)cc3O)n[nH]c2C(F)(F)F)c1` [compound 0198309], 2%.
Turning to `COc1cccc(-c2c(C(F)(F)F)nn(C)c2-c2ccc(OCc3ccc(Cl)cc3)cc2O)c1` [compound 0198310], the remaining activity at 100 µM amounted to 86%.
For `COc1cccc(-c2c(-c3ccc(OCc4ccc(Cl)cc4)cc3O)nn(C)c2C(F)(F)F)c1` [compound 0198311] the value was 105%; for `COc1cccc(-c2c(-c3ccc(OCc4ccc(Cl)cc4)cc3O)n[nH]c2C)c1` [compound 0198312], 104%.
For `COc1cccc(-c2c(C)nn(C)c2-c2ccc(OCc3ccc(Cl)cc3)cc2O)c1` [compound 0198313] the value was 105%.
Take `COc1cccc(-c2c(-c3ccc(OCc4ccc(Cl)cc4)cc3O)nn(C)c2C)c1` [compound 0198314]: the remaining activity at 100 µM is 104%.
For `CCc1[nH]nc(-c2ccc(OCc3ccc(Cl)cc3)cc2O)c1-c1cccc(OC)c1` [compound 0198315] the value was 105%; for `CCc1nn(C)c(-c2ccc(OCc3ccc(Cl)cc3)cc2O)c1-c1cccc(OC)c1` [compound 0198316], 101%.
For `CCc1c(-c2cccc(OC)c2)c(-c2ccc(OCc3ccc(Cl)cc3)cc2O)nn1C` [compound 0198317] the value was 126%; for `Oc1cc(OCc2ccc(Cl)cc2)ccc1-c1n[nH]cc1-c1cc(C(F)(F)F)cc(C(F)(F)F)c1` [compound 0198318], 32%.
For `Cn1cc(-c2cc(C(F)(F)F)cc(C(F)(F)F)c2)c(-c2ccc(OCc3ccc(Cl)cc3)cc2O)n1` [compound 0198319] the value was 96%.
Regarding `Oc1cc(OCc2ccc(Cl)cc2)ccc1-c1n[nH]cc1-c1cccnc1` [compound 0198320], the remaining activity at 100 µM worked out at 52%.
For `Cn1cc(-c2cccnc2)c(-c2ccc(OCc3ccc(Cl)cc3)cc2O)n1` [compound 0198321] the value was 96%; for `Oc1cc(OCc2ccc(Cl)cc2)ccc1-c1n[nH]cc1-c1ccoc1` [compound 0198322], 28%.
For `Cn1ncc(-c2ccoc2)c1-c1ccc(OCc2ccc(Cl)cc2)cc1O` [compound 0198323] the value was 70%; for `Cn1cc(-c2ccoc2)c(-c2ccc(OCc3ccc(Cl)cc3)cc2O)n1` [compound 0198324], 80%; for `Oc1cc(OCc2ccc(Cl)cc2)ccc1-c1n[nH]c(C(F)(F)F)c1-c1ccoc1` [compound 0198325], 60%.
Regarding `COc1cccc(-c2cn(C)nc2-c2ccc(OCc3ccc(Cl)cc3)cc2O)c1` [compound 0198326], the remaining activity at 100 µM stood at 106%.
Regarding `Cc1cc(C)cc(-c2c[nH]nc2-c2ccc(OCc3ccc(Cl)cc3)cc2O)c1` [compound 0198352], the remaining activity at 100 µM worked out at 56%.
For `Cc1cc(C)cc(-c2cn(C)nc2-c2ccc(OCc3ccc(Cl)cc3)cc2O)c1` [compound 0198353], the remaining activity at 100 µM was 104%.
On to `Cc1cc(C)cc(-c2cnn(C)c2-c2ccc(OCc3ccc(Cl)cc3)cc2O)c1` [compound 0198354], for which the remaining activity at 100 µM amounted to 85%.
For `Cc1ccccc1-c1c[nH]nc1-c1ccc(OCc2ccc(Cl)cc2)cc1O` [compound 0198355] the value was 75%; for `Cc1ccccc1-c1cn(C)nc1-c1ccc(OCc2ccc(Cl)cc2)cc1O` [compound 0198356], 118%.
For `COc1ccccc1-c1c[nH]nc1-c1ccc(OCc2ccc(Cl)cc2)cc1O` [compound 0198357] the value was 62%; for `COc1ccccc1-c1cn(C)nc1-c1ccc(OCc2ccc(Cl)cc2)cc1O` [compound 0198358], 93%; for `Cc1cc(C)c(-c2c[nH]nc2-c2ccc(OCc3ccc(Cl)cc3)cc2O)c(C)c1` [compound 0198359], 35%.
For `Cc1cc(C)c(-c2cn(C)nc2-c2ccc(OCc3ccc(Cl)cc3)cc2O)c(C)c1` [compound 0198360] the value was 101%.
Regarding `Cn1cc(-c2c[nH]nc2-c2ccc(OCc3ccc(Cl)cc3)cc2O)cn1` [compound 0198361], the remaining activity at 100 µM amounted to 87%.
As for `Cn1cc(-c2cn(C)nc2-c2ccc(OCc3ccc(Cl)cc3)cc2O)cn1` [compound 0198362], the remaining activity at 100 µM came to 109%.
For the compound `N#Cc1ccc(-c2c(-c3ccc(OCc4ccc(Cl)cc4)cc3O)n[nH]c2C(F)(F)F)cc1` [compound 0198391], the remaining activity at 100 µM amounted to 4%.
For `Cn1nc(C(F)(F)F)c(-c2ccc(C#N)cc2)c1-c1ccc(OCc2ccc(Cl)cc2)cc1O` [compound 0198392] the value was 54%.
For `Cn1nc(-c2ccc(OCc3ccc(Cl)cc3)cc2O)c(-c2ccc(C#N)cc2)c1C(F)(F)F` [compound 0198393] the value was 71%; for `NC(=O)c1ccc(-c2c(-c3ccc(OCc4ccc(Cl)cc4)cc3O)n[nH]c2C(F)(F)F)cc1` [compound 0198394], 30%; for `C/C(=N\N)c1ccc(-c2c(-c3ccc(OCc4ccc(Cl)cc4)cc3O)n[nH]c2C(F)(F)F)cc1` [compound 0198395], 109%.
For `CN/N=C(\C)c1ccc(-c2c(C(F)(F)F)nn(C)c2-c2ccc(OCc3ccc(Cl)cc3)cc2O)cc1` [compound 0198396] the value was 56%; for `CN/N=C(\C)c1ccc(-c2c(-c3ccc(OCc4ccc(Cl)cc4)cc3O)nn(C)c2C(F)(F)F)cc1` [compound 0198397], 82%.
